{"source": "patent US20230183333A1", "about": "“COMPOSITION FOR THE TREATMENT OF PHILADELPHIA CHROMOSOME-POSITIVE ACUTE LYMPHOBLASTIC LEUKEMIA” (priority 2020, published 2023)", "molecules": {"B1": {"name": "human CXCR4 on SUP-B15 cells (receptor, UniProt P61073 1-352, looked up)", "chain": "MEGISIYTSDNYTEEMGSGDYDSMKEPCFREENANFNKIFLPTIYSIIFLTGIVGNGLVILVMGYQKKLRSMTDKYRLHLSVADLLFVITLPFWAVDAVANWYFGNFLCKAVHVIYTVNLYSSVLILAFISLDRYLAIVHATNSQRPRKLLAEKVVYVGVWIPALLLTIPDFIFANVSEADDRYICDRFYPNDLWVVVFQFQHIMVGLILPGIVILSCYCIIISKLSHSKGHQKRKALKTTVILILAFFACWLPYYIGISIDSFILLEIIKQGCEFENTVHKWISITEALAFFHCCLNPILYAFLGAKFKTSAQHALTSVSRGSSLKILSKGKRGGHSSVSTESESSSFHSS", "notes": "whole, on cells; In the immunoprecipitation it comes from SUP-B15 lysate; also called C-X-C chemokine receptor 4"}, "B2": {"name": "mouse IL7R on bone marrow-derived pre-B cells (WT or BCR-ABL1 transformed) (receptor, UniProt P16872 21-459, looked up)", "chain": "ESGNAQDGDLEDADADDHSFWCHSQLEVDGSQHLLTCAFNDSDINTANLEFQICGALLRVKCLTLNKLQDIYFIKTSEFLLIGSSNICVKLGQKNLTCKNMAINTIVKAEAPSDLKVVYRKEANDFLVTFNAPHLKKKYLKKVKHDVAYRPARGESNWTHVSLFHTRTTIPQRKLRPKAMYEIKVRSIPHNDYFKGFWSEWSPSSTFETPEPKNQGGWDPVLPSVTILSLFSVFLLVILAHVLWKKRIKPVVWPSLPDHKKTLEQLCKKPKTSLNVSFNPESFLDCQIHEVKGVEARDEVESFLPNDLPAQPEELETQGHRAAVHSANRSPETSVSPPETVRRESPLRCLARNLSTCNAPPLLSSRSPDYRDGDRNRPPVYQDLLPNSGNTNVPVPVPQPLPFQSGILIPVSQRQPISTSSVLNQEEAYVTMSSFYQNK", "notes": "whole, on cells; also called IL7Rα"}, "B3": {"name": "mouse CXCR4 on bone marrow-derived pre-B cells (WT or BCR-ABL1 transformed) (receptor, UniProt P70658 1-359, looked up)", "chain": "MEPISVSIYTSDNYSEEVGSGDYDSNKEPCFRDENVHFNRIFLPTIYFIIFLTGIVGNGLVILVMGYQKKLRSMTDKYRLHLSVADLLFVITLPFWAVDAMADWYFGKFLCKAVHIIYTVNLYSSVLILAFISLDRYLAIVHATNSQRPRKLLAEKAVYVGVWIPALLLTIPDFIFADVSQGDISQGDDRYICDRLYPDSLWMVVFQFQHIMVGLILPGIVILSCYCIIISKLSHSKGHQKRKALKTTVILILAFFACWLPYYVGISIDSFILLGVIKQGCDFESIVHKWISITEALAFFHCCLNPILYAFLGAKFKSSAQHALNSMSRGSSLKILSKGKRGGHSSVSTESESSSFHSS", "notes": "whole, on cells"}, "B4": {"name": "IL7: cytokine that binds IL7Rα chain (protein)", "chain": "DCDIEGKDGKQYESVLMVSIDQLLDSMKEIGSNCLNNEFNFFKRHICDANKEGMFLFRAARKLRQFLKMNSTGDFDLHLLKVSEGTTILLNCTGQVKGRKPAALGEAQPTKSLEENKSLKEQKKLNDLCFLKRLLQEIKTCWNKILMGTKEH"}}, "key": {"[1]": {"system": "BCR-ABL1 transformed cells", "assay": "Imatinib-induced cell death in the presence of cytokine/chemokine (viability, cell cycle)", "format": "cell-based, mouse", "conditions": "added together with 1 μM imatinib", "procedure": "BM cells from WT (n=7, female), IL7Rα^Δ (n=7, female), IL7Rα^fl/fl (n=7, female), CXCR4^fl/fl (n=3, female) and FoxO1^fl/fl (n=3, female) mice were collected and retrovirally transformed with either an empty pMIG vector or with a pMIG vector expressing BCR-ABL1. Unless mentioned otherwise, cells were cultured for 3 to 7 days in Iscove's medium (Biochrom AG) containing 10% heat-inactivated FCS (Sigma-Aldrich), 2 mM 1-glutamine, 100 U/ml penicillin (Gibco), 100 U/ml streptomycin (Gibco), and 50 μM 2-mercaptoethanol. The medium was supplemented in excess with the supernatant of J558L plasmacytoma cells stably transfected with a vector encoding murine IL7. Transformed cells were selected by IL7 withdrawal and kept in optimum conditions^38. Retroviral vectors containing either constitutively active STAT5 (STAT5-CA)^34 or an empty vector were used to transduce BCR-ABL1-transformed cells and sorted cells were used then for western blot or flow cytometry analysis. 1-2μM 4-hydroxy tamoxifen (Tam) (Sigma-Aldrich) was used to induce deletion on plasmids expressing tamoxifen-inducible form of Cre (Cre-ER^T2)^14. All cells were tested and found free from mycoplasma.\nAntibodies for flow cytometry (CD19, IL7R, CXCR4, FoxO1 and CD11b) were purchased from (eBiosciences, BioLegend, Invitrogen or Cell Signaling). Intracellular flow cytometry staining was performed using Fix and Perm cell permeabilization kit (ADG). Cell viability was measured using Sytox® blue dead cell stain (Life Technologies). FACS Cantoll (BD Biosciences) was used for flow cytometry, and FlowJo v.10.1 was used for data analysis."}, "[2]": {"system": "BCR-ABL1 transformed cells", "assay": "CXCL12-induced Ca2+ flux", "format": "cell-based, mouse", "conditions": "CXCL12 100 ng/ml", "experimental": "A total of 1×10^6 cells were loaded with Indo-1 AM (Invitrogen) and used for Ca^2+ analyses^62. 100 ng/m1 of CXCL12 was used for stimulation"}, "[3]": {"system": "human Ph+ ALL SUP-B15 cell line", "assay": "IL7R and CXCR4 surface expression after imatinib in a human Ph+ ALL cell line", "format": "cell-based", "conditions": "5 μM imatinib, day 7, surface expression", "experimental": "68 BCR-ABL+ ALL patients were treated according to European intergroup study of post-induction treatment of Philadelphia-chromosome-positive ALL (EsPhALL) 2004 and 2010 protocols (NCT00287105) and ALL-Berlin-Frankfurt-Münster (BFM) 2000 (NCT00430118) study. Informed consent was obtained according to institutional regulations, in accordance with the Declaration of Helsinki. 697, SUP-B15, and TOM-1 cell lines were obtained from DSMZ. Ph+ ALL cells containing T3151 mutation was kindly provided by M. Miischen (Shojaee, S., et al. Nat Med 22, 379-387 (2016))."}, "[4]": {"target": "T1, human interleukin 7 receptor (IL7R) on SUP-B15 Ph+ BCP-ALL cells (human, UniProt P16871 21-459)", "T1 construct": "whole, on cells; In the immunoprecipitation it comes from SUP-B15 lysate; also called IL7Rα; human IL7Rα", "T1 sequence (looked up)": "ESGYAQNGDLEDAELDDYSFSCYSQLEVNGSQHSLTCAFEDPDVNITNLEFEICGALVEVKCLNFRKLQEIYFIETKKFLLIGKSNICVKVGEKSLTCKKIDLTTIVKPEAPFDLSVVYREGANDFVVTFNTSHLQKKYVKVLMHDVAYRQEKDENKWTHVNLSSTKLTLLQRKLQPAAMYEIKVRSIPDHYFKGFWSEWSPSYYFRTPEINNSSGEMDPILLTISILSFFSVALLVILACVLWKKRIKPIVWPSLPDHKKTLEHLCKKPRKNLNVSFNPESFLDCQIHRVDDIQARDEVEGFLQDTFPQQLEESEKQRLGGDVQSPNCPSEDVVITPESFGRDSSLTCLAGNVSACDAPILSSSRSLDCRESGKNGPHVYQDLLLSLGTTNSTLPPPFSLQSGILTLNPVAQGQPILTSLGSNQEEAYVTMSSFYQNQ", "assay": "Fab-PLA on SUP-B15 cells in comparison to Ramos cells"}, "[5]": {"target": "T2, mouse Jak3 in pre-B cells (mouse, UniProt Q62137 1-1100)", "T2 construct": "Detected in cells by PLA with an antibody from Cell Signaling", "T2 sequence (looked up)": "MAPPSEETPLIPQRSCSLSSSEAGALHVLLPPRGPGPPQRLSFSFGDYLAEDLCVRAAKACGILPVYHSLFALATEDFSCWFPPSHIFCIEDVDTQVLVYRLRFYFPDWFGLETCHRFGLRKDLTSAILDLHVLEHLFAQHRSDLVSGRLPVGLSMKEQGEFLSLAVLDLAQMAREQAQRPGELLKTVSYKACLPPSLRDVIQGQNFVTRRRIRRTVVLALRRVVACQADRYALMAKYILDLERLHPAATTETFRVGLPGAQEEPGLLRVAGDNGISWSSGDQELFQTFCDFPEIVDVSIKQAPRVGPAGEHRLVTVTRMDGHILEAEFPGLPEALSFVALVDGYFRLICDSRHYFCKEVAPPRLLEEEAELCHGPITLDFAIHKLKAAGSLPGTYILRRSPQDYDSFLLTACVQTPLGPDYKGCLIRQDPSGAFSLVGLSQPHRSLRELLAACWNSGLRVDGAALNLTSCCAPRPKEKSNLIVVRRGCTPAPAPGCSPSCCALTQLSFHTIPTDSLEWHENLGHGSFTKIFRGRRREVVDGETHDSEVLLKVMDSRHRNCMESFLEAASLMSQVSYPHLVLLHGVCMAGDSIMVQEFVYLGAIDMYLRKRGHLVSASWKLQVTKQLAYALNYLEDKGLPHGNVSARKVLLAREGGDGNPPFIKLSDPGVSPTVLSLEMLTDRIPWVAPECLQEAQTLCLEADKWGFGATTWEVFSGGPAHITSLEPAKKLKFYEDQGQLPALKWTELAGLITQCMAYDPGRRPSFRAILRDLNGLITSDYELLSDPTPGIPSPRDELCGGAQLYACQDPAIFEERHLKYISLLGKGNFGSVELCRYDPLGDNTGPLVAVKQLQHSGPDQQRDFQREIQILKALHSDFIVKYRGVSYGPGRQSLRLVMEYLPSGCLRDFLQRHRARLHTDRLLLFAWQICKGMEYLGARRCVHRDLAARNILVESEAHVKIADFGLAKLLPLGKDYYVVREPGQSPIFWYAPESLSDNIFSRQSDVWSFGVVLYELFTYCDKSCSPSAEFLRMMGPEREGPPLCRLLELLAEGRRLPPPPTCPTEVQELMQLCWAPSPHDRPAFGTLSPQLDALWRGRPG", "assay": "proximity ligation assay on mouse WT and BCR-ABL1 transformed pre-B cells"}, "[6]": {"target": "B2", "assay": "proximity ligation assay on mouse pre-B cells"}, "[7]": {"target": "T2, mouse Jak3 in pre-B cells", "assay": "proximity ligation assay on mouse BCR-ABL1 transformed pre-B cells"}}, "data": [{"molecule": "c1cc(CN2CCCNCCNCCCNCC2)ccc1CN1CCCNCCNCCCNCC1", "note": "[AMD3100]", "values": [{"measurement": "effect on imatinib-induced cell death", "setting": "[1]", "result": "did not affect imatinib treatment"}, {"measurement": "CXCL12-induced Ca2+ response", "setting": "[2]", "result": "prevented the Ca^2+ response"}]}, {"molecule": "Cc1ccc(NC(=O)c2ccc(CN3CCN(C)CC3)cc2)cc1Nc1nccc(-c2cccnc2)n1", "note": "[imatinib]", "values": [{"measurement": "expression of IL7R and CXCR4", "setting": "[3]", "result": "upregulated IL7R and CXCR4"}]}, {"molecule": "CXCL12: chemokine, the ligand for CXCR4", "values": [{"measurement": "effect on imatinib-induced cell death", "setting": "[1]", "result": "did not affect imatinib treatment"}]}, {"molecule": "TSLP: the ligand for CRLF2", "values": [{"measurement": "effect on imatinib-induced cell death", "setting": "[1]", "result": "unable to rescue BCR-ABL1 transformed cells from inhibitor-induced cell death"}]}, {"molecule": "B1", "values": [{"measurement": "binding result", "setting": "[4]", "result": "binds"}]}, {"molecule": "B2", "values": [{"measurement": "binding result", "setting": "[5]", "result": "binds"}]}, {"molecule": "B3", "values": [{"measurement": "binding result", "setting": "[6]", "result": "binds"}, {"measurement": "binding result", "setting": "[7]", "result": "binds"}]}, {"molecule": "B4", "values": [{"measurement": "effect on imatinib-induced cell death", "setting": "[1]", "result": "counteracted imatinib-induced cell death and restored the cell cycle progression"}]}]}
